Results taken from EP1247803A2, “Indolinone compounds suitable for modulation of protein kinases” (Sugen, Inc., priority 1996, dated 1998).

Assays:
[1] = target: T1, FLK-1 receptor (Mus musculus, UniProt P35918); experiment: FLK-1 ELISA (kinase activity of the FLK-1 receptor in FLK-1/NIH3T3 cells, VEGF stimulated); type: cell-based
T1 construct: expressed in transfected cells; host or cells: NIH3T3 C7#3
How it was run: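 FLK-1-expressing NIH3T3 C7#3 cells, starved overnight in 0.1% FBS medium, were treated with compounds at a 1:200 final dilution (0.5% DMSO) for 2 h at 37 °C, with VEGF stimulation. FLK-1 kinase activity was read by ELISA on anti-rabbit IgG plates using affinity-purified anti-FLK-1 antiserum.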

[2] = test system: MET; experiment: MET biochemical kinase assay; parameters: species or system human; concentration or dose not given beside the values
How it was run: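 Human MET was captured from cell lysates onto ELISA plates via goat anti-rabbit Fc and rabbit polyclonal antibody to the MET cytoplasmic domain. After washing, test compounds and kinase buffer with ATP and divalent metal ions were added. Phosphotyrosine was detected with HRP-conjugated anti-phosphotyrosine antibody and TMB colorimetric read-out.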

[3] = target: PDGF-R (Homo sapiens, UniProt P09619); experiment: PDGF-R ELISA; type: cell-based
Chain of PDGF-R (P09619 33-1106, species assumed): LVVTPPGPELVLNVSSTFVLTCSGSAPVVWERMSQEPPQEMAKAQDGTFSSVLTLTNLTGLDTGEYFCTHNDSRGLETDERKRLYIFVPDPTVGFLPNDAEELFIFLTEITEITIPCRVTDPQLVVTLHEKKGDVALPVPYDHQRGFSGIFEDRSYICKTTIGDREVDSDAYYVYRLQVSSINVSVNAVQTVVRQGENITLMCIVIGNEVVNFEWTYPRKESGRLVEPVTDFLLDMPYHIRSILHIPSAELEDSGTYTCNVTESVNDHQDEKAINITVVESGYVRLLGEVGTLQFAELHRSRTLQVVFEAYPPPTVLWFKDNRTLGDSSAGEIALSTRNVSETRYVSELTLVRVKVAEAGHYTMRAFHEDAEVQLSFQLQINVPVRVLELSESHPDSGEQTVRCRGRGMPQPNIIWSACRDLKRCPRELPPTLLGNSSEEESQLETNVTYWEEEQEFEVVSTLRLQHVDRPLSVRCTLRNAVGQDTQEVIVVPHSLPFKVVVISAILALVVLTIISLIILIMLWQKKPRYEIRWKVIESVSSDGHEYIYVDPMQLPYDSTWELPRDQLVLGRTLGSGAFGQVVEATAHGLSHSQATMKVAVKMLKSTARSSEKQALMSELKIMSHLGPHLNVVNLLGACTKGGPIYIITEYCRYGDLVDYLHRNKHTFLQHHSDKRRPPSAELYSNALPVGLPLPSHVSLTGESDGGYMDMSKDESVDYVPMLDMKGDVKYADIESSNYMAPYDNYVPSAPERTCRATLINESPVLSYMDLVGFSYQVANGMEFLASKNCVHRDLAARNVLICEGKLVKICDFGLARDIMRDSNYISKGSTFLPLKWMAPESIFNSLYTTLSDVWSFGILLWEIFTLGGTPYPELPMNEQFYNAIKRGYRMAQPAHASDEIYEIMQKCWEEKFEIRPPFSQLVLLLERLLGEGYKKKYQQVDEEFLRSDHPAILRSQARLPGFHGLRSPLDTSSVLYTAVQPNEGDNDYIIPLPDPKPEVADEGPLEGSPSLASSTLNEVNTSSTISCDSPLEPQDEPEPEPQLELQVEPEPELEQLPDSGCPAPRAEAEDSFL
Description: A PDGF-R ELISA is described in International Patent Publication No. WO 96/40116, published December 19, 1996 by Tang et al.

T1 sequence (P35918 20-1345): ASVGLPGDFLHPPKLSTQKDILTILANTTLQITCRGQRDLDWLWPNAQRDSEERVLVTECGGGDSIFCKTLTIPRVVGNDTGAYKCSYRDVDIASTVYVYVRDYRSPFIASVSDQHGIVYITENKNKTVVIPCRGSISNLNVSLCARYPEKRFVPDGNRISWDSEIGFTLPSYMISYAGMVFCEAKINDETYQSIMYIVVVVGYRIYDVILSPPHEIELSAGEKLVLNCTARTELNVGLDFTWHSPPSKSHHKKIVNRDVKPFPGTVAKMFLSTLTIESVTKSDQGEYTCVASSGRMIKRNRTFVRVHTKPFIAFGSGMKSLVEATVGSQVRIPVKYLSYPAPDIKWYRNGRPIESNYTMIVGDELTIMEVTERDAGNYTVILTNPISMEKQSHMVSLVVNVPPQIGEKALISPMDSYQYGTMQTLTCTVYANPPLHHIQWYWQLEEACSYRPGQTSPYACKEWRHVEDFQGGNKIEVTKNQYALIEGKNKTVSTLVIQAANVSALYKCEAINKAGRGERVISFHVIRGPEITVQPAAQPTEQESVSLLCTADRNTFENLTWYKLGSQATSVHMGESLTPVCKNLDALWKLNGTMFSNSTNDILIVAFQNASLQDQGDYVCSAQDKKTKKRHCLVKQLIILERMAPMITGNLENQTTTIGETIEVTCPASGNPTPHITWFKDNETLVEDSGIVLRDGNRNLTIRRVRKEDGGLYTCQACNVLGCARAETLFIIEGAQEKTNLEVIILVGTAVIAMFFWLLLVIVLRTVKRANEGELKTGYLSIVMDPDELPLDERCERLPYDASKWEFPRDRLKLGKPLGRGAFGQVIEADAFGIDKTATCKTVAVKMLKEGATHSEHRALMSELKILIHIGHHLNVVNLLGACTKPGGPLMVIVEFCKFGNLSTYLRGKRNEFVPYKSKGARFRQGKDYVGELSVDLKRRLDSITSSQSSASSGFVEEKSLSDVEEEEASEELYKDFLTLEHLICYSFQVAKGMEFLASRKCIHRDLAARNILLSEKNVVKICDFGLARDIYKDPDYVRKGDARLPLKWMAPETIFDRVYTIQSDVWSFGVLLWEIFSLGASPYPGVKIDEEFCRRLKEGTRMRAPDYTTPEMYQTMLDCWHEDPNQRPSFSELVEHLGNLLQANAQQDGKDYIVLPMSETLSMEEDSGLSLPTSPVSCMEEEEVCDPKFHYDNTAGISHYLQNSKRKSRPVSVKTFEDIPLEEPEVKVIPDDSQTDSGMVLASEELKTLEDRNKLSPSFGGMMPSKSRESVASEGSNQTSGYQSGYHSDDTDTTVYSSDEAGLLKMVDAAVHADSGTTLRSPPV

Row | SMILES | Fik Kinase %Inhibition [1] | Met Kinase % Inhibition [2] [%] | PDGF Kinase %Inhibition [3] [%]
1 | O=C1Nc2ccc(S(=O)(=O)N3CCOCC3)cc2C1=Cc1ccc(Br)cc1 [10717/F08] | -0.7% | 64.0 | 
2 | O=C1Nc2ccc(CCCl)cc2C1=Cc1cccs1 [10717/G03] | 1.8% | 4.5 | 
3 | O=C1Nc2c(Br)cc(Br)cc2C1=Cc1cc(O)c2c(c1O)CCCC2 [10726/A07] | -72.3% | 101.4 | -36.8
4 | O=C1Nc2ccc(CCCl)cc2C1=Cc1sccc1Br [10725/G02] | -3.7% | 30.8 | -11.8
5 | COc1cccc(O)c1C=C1C(=O)Nc2ccc(S(=O)(=O)N3CCOCC3)cc21 [10717/F10] | -4,4% | 54.6 | 
6 | O=C1Nc2ccc(CCCl)cc2C1=Cc1ccc(N2CCOCC2)cc1 [10725/G08] | -14.8% | 47.3 | 8.3
7 | CNS(=O)(=O)c1ccc2c(c1)C(=Cc1sccc1Br)C(=O)N2 [10725/D02] | -3.6% | 14.0 | -8.4
8 | O=C1Nc2ccc(S(=O)(=O)Nc3ccc(C(F)(F)F)cc3)cc2C1=Cc1c[nH]cn1 [10725/E11] | 18.9% | 9.6 | 20.8
9 | Cc1c(Br)ccc2c1C(=Cc1c(Br)cnn1-c1ccc(Cl)cc1)C(=O)N2 [10725/C10] | 8.7% | -0.6 | 38.5
10 | Cc1c(Br)ccc2c1C(=Cc1cc(O)c3c(c1O)CCCC3)C(=O)N2 [10726/C07] | -17.0% | 84.9 | -67.7
11 | Cc1cc(C=C2C(=O)Nc3ccc(S(=O)(=O)N4CCOCC4)cc32)[nH]n1 [10725/F05] | -0.8% | 15.5 | -5.6
12 | O=C1Nc2ccc(S(=O)(=O)Nc3ccc(C(F)(F)F)cc3)cc2C1=Cc1sccc1Br [10725/E02] | -5.6% | 40.2 | -8.9
13 | Cc1cc(C=C2C(=O)Nc3ccc(CCCl)cc32)[nH]n1 [10725/G05] | -18.3% | 15.6 | 7.4
14 | Cc1[nH]c(C=C2C(=O)Nc3ccc(S(=O)(=O)N4CCOCC4)cc32)c(Br)c1Br [10717/F11] | 1.4% | 81.5 | 
15 | COc1cc(C)cc(O)c1C=C1C(=O)Nc2ccc(S(=O)(=O)N3CCOCC3)cc21 [10725/F06] | -1.0% | 41.8 | 14.1
16 | O=C1Nc2ccc(CCCl)cc2C1=Cc1c[nH]cn1 [10725/G11] | -28.0% | 25.7 | 22.2
17 | O=C1Nc2ccc(S(=O)(=O)Nc3ccc(C(F)(F)F)cc3)cc2C1=Cc1ccc(N2CCOCC2)cc1 [10725/E08] | 12.1% | 39.7 | 48.6
18 | COC(=O)Cc1c(Cl)[nH]c(C=C2C(=O)Nc3ccc(Br)c(C)c32)c1C(=O)OC [10725/C09] | 11.2% | 24.1 | 34.7
19 | Cc1ccc(C=C2C(=O)Nc3ccc(S(=O)(=O)N4CCOCC4)cc32)s1 [10717/F07] | 2.0% | 37.6 | 
20 | CCOc1ccccc1C=C1C(=O)Nc2ccc(CCCl)cc21 [10717/G02] | 14.9% | 30.7 | 
21 | Cc1ccc(C=C2C(=O)Nc3ccc(S(=O)(=O)Nc4ccc(C(F)(F)F)cc4)cc32)o1 [10725/E04] | -38.8% | 59.0 | 3.1

Row | SMILES | Fik Kinase %Inhibition [1] | Met Kinase % Inhibition [2] [%] | PDGF Kinase %Inhibition [3] [%]
22 | O=C1Nc2ccccc2C1=C1C(=O)Nc2c(Br)cc(Br)cc21 [10726/A09] | -4.5% | 70.8 | 16.4
23 | COc1ccc(Br)c(C=C2C(=O)Nc3ccc(CCCl)cc32)c1O [10725/G03] | -6.9% | 58.6 | -6.5
24 | CNS(=O)(=O)c1ccc2c(c1)C(=Cc1ccc(N3CCN(C=O)CC3)cc1)C(=O)N2 [10725/D07] | 2.6% | 37.0 | 18.4
25 | Cc1cc(C=C2C(=O)Nc3ccc(S(=O)(=O)Nc4ccc(C(F)(F)F)cc4)cc32)[nH]n1 [10725/E05] | -0.2% | 28.2 | 27.5
26 | O=C1Nc2ccc(S(=O)(=O)N3CCOCC3)cc2C1=Cc1c[nH]cn1 [10725/F11] | 9.9% | 25.7 | 20.3
27 | COc1cc(C)cc(O)c1C=C1C(=O)Nc2ccc(CCCl)cc21 [10725/G06] | 21.7% | 35.8 | 27.5
28 | O=C1Nc2ccc(F)cc2C1=C1C(=O)Nc2ccc(I)cc21 [10726/B08] | 12.2% | 60.2 | 24.6
29 | CNS(=O)(=O)c1ccc2c(c1)C(=Cc1c(Br)ccc(OC)c1O)C(=O)N2 [10725/D03] | -11.3% | 72.9 | 5.4
30 | O=C1Nc2ccc(I)cc2C1=Cc1cc(O)c2c(c1O)CCCC2 [10726/B07] | -36.5% | 98.5 | -59.5
31 | Cc1c(Br)ccc2c1C(=Cc1ccc(N3CCN(C=O)CC3)cc1)C(=O)N2 [10725/C07] | 65.0% | 38.8 | 107.0
32 | CNS(=O)(=O)c1ccc2c(c1)C(=Cc1ccc(N3CCOCC3)cc1)C(=O)N2 [10725/D08] | 1.8% | 39.2 | 38.5
33 | O=C1Nc2ccc(S(=O)(=O)N3CCOCC3)cc2C1=Cc1ccc[nH]1 [10717/F09] | -13.3% | 41.4 | 
34 | CCOC(=O)c1[nH]c(C=C2C(=O)Nc3c(Br)cc(Br)cc32)c(C(=O)OC)c1C [10726/A03] | -2.6% | 70.1 | 4.3
35 | Cc1c(Br)ccc2c1C(=Cc1ccc(N3CCOCC3)cc1)C(=O)N2 [10725/C08] | -8.7% | 28.0 | 101.7
36 | Cc1cc(C=C2C(=O)Nc3ccc(Br)c(C)c32)[nH]n1 [10725/C05] | -37.0% | 31.7 | 28.9
37 | O=CN1CCN(c2ccc(C=C3C(=O)Nc4ccc(CCCl)cc43)cc2)CC1 [10725/G07] | 4.8% | 39.7 | 23.7
38 | COc1cc(C)cc(O)c1C=C1C(=O)Nc2ccc(S(=O)(=O)Nc3ccc(C(F)(F)F)cc3)cc21 [10725/E06] | -1.8% | 36.7 | 39.0
39 | O=CN1CCN(c2ccc(C=C3C(=O)Nc4ccc(S(=O)(=O)N5CCOCC5)cc43)cc2)CC1 [10725/F07] | 6.9% | 67.8 | 15.0
40 | Cc1ccc(C=C2C(=O)Nc3ccc(Br)c(C)c32)o1 [10725/C04] | -27.3% | 75.9 | 25.1
41 | O=C1Nc2c(Br)cc(Br)cc2C1=Cc1ccc(F)cc1 [10717/A05] | -2.6% | 35.6 | 
